Values of other authors, collected in patent publication US12600787B2, “Methods for the treatment of thyroid eye disease” (Horizon Therapeutics Ireland DAC, priority 2019, dated 2026).
Where two headings read alike, the source gives them in different places.

How the values were obtained:
[1] = cited from earlier work
TED (GO) = conditions: cited from earlier work
IGF-1 R = IGF-1 R (Homo sapiens, UniProt P08069); conditions: cited from earlier work
[2] = tested on: IGF-1 R-overexpressing tumor cells; conditions: cited from earlier work
ALK = ALK (Homo sapiens, UniProt Q9UM73); conditions: cited from earlier work
neuroblastoma = conditions: by overcoming crizotinib resistance and inducing apoptosis; cited from earlier work
[3] = cited from earlier work; remark: listed apart in the source
tumors = conditions: in vivo; cited from earlier work
[4] = tested on: moderate-to-severe active TED; conditions: cited from earlier work
[5] = tested on: susceptible tumor cell populations; conditions: cited from earlier work
[6] = target: c-erbB2/HER2/neu receptor (Homo sapiens, UniProt P04626); conditions: cited from earlier work
IGF-IR (purified enzyme) = IGF-IR (purified enzyme) (Homo sapiens, UniProt P08069); conditions: cited from earlier work
[7] = tested on: intracellular IGF-IR phosphorylation; conditions: cited from earlier work

Sequence of IGF-1 R (P08069 31-1367): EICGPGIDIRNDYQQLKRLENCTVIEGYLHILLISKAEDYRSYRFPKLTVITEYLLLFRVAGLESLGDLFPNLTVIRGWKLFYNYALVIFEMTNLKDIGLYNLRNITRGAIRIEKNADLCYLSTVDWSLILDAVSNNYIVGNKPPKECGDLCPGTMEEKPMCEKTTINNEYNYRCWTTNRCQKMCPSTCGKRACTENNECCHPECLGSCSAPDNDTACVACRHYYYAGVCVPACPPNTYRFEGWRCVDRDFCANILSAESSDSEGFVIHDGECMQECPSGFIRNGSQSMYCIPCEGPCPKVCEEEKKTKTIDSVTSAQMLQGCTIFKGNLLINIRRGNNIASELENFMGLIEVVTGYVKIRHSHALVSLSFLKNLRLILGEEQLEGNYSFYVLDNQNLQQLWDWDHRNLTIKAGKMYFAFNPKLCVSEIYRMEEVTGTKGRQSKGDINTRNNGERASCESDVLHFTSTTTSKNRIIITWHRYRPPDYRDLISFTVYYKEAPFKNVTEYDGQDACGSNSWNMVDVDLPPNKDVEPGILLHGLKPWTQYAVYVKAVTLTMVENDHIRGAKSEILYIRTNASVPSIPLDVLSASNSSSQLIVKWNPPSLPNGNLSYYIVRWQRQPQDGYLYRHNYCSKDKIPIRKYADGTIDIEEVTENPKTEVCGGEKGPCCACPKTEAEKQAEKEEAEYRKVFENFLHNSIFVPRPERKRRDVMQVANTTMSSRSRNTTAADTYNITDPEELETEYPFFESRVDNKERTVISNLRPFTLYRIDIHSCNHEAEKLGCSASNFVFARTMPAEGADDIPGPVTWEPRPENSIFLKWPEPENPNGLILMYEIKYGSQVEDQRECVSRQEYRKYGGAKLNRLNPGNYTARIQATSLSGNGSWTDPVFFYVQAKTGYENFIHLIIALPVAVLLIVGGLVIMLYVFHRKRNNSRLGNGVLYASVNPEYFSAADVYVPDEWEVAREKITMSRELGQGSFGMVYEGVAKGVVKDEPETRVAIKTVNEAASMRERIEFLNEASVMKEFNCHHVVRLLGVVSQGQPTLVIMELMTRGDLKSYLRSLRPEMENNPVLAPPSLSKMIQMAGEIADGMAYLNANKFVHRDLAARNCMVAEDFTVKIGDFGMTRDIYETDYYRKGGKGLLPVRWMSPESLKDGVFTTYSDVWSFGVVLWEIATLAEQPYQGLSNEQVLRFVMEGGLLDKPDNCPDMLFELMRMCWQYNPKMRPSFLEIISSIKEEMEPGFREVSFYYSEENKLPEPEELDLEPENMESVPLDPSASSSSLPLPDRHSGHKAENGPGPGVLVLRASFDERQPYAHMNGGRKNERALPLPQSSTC
Sequence of ALK (Q9UM73 19-1620, species assumed): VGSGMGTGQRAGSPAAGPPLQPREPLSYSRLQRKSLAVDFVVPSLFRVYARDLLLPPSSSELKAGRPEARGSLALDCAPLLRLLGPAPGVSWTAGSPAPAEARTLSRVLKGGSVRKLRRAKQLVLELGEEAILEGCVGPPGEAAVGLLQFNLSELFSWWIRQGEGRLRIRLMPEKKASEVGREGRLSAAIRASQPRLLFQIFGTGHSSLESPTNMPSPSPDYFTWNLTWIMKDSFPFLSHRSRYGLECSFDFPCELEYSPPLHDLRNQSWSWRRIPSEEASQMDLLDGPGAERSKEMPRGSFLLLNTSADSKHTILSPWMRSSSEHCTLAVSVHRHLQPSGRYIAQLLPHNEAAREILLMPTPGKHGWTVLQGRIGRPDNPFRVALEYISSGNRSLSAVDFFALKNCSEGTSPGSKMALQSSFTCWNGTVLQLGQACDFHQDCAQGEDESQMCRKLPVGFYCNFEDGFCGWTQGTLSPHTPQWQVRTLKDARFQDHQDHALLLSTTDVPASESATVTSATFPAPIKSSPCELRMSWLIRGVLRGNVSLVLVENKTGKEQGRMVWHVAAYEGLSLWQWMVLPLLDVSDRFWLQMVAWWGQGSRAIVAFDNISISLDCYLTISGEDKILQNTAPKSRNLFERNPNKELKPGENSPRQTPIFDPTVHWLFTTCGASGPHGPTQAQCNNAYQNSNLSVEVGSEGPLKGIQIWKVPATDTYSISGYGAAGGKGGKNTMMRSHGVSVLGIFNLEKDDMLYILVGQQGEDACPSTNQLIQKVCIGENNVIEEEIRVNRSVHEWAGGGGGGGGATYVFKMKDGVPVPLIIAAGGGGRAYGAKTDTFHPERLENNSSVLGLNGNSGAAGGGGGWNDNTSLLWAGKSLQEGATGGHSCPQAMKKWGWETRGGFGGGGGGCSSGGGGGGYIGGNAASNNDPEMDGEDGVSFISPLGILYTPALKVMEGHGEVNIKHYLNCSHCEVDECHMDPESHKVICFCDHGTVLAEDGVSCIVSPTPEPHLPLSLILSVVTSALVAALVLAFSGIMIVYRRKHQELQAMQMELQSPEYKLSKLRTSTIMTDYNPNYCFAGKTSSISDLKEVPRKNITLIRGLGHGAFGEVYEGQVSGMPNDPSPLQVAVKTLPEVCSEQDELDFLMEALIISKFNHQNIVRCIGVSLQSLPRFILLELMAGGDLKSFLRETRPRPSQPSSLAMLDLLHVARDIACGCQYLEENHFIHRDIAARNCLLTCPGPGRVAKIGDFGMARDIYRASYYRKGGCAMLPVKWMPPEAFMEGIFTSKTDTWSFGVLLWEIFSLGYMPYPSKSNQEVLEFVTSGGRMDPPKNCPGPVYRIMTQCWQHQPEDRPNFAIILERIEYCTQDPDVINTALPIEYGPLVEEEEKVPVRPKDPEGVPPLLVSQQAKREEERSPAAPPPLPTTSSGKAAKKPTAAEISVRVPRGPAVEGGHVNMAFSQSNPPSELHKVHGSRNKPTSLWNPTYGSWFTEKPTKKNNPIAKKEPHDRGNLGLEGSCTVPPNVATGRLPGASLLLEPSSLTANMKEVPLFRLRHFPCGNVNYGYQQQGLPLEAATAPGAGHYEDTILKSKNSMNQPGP
Sequence of c-erbB2/HER2/neu receptor (P04626 23-1255): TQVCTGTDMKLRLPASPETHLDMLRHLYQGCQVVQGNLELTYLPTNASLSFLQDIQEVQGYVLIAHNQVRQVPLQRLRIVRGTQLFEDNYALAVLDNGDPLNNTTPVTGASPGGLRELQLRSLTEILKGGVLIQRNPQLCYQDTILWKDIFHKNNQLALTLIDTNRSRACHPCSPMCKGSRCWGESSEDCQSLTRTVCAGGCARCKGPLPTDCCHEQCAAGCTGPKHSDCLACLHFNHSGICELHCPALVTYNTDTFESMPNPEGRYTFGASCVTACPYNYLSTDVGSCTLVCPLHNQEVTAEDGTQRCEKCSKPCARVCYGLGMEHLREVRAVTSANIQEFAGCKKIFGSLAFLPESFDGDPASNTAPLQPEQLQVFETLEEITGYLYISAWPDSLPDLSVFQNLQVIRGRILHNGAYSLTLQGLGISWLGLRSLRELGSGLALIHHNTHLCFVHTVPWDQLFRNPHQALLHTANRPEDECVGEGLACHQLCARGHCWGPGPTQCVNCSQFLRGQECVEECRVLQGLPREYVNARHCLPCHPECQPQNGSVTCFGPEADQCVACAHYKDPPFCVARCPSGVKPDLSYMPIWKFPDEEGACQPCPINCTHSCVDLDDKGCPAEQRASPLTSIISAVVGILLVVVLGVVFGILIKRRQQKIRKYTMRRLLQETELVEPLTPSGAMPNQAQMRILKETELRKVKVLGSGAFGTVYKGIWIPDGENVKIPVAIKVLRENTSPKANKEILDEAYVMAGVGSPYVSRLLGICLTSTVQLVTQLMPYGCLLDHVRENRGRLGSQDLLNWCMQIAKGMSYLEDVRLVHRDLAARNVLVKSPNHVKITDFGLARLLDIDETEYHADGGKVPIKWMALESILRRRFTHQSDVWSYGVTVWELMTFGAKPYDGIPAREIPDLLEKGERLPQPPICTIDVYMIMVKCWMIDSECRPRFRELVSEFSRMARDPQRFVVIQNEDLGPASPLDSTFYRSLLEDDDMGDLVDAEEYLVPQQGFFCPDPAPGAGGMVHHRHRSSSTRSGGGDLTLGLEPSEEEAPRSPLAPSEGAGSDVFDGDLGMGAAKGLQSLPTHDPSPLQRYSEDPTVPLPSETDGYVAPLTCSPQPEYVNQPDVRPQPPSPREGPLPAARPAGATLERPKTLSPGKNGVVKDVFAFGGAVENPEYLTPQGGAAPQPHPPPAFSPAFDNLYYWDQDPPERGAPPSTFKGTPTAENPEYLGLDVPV
Sequence of IGF-IR (purified enzyme) (P08069 31-1367): as the sequence (P08069 31-1367) above

C[C@]1(O)C[C@@H](c2nc(-c3ccc4ccc(-c5ccccc5)nc4c3)c3c(N)nccn32)C1 [Linsitinib]
T1/2 ([1]; oral): oral; 2-4 hrs

teprotumumab: fully human IGF-IR-inhibitory monoclonal antibody approved for the treatment of TED
efficacy in the treatment of TED (TED (GO); in vivo): effective | average decrease in exophthalmos (TED (GO); vs. 0.15 mm in the placebo group): 2.46 mm | T1/2 ([1]; IV): IV; 8 days

CCOC(=O)N1CCC(Nc2cc(Cl)cc3c(S(=O)(=O)N4CCO[C@H](COc5ccccc5)C4)c(C(N)=O)[nH]c23)CC1 [PL-225B]
IGF-1R inhibition (IGF-1 R): selectively inhibits | T1/2 ([1]; oral): Oral; 21d | tumor cell apoptosis [2]: induction of tumor cell apoptosis | tumor cell proliferation [2]: inhibition of tumor cell proliferation

Cixutumumab: IGF-1R inhibitor antibody, HC SEQ ID NO:55, LC SEQ ID NO:56
T1/2 ([1]; IV): IV; 5 days

COc1cc(N2CCC(N)CC2)ccc1Nc1ncc(Cl)c(-c2c[nH]c3ccccc23)n1 [AZD3463]
ALK inhibition (ALK): potent ALK/IGF-1 R inhibitor | IGF-1R inhibition (IGF-1 R): potent ALK/IGF-1 R inhibitor | neuroblastoma growth (neuroblastoma): inhibition of neuroblastoma growth

COCCN1CCN(CCn2ccc(Nc3ncc4c(n3)[C@@H](C)Cc3nn(C)c(-c5ccccc5)c3-4)n2)CC1 [BI885578]
in vivo half-life [3]: short in vivo half-life | intestinal absorption ([3]; in vivo): rapid intestinal absorption | metabolic clearance ([3]; in vivo): rapid metabolic clearance | cell proliferation and apoptosis in tumors (tumors): inhibition of cell proliferation and induction of apoptosis in tumors

Dalotuzumab: IGF-1R inhibitor antibody, HC SEQ ID NO:7, LC SEQ ID NO:8
T1/2 ([1]; in vivo): IV; 5 days

rituximab: a CD20+ B cell-depleting agent
trial result versus placebo ([4]; first monocenter RCT, 2015): negative (no differences with placebo) | reduction in proptosis compared with ivGCs ([4]; results using rituximab versus ivGC RCT): not different | trial result versus ivGCs ([4]; second monocenter RCT, 2015): positive (beneficial effects comparable to ivGCs)

C[C@H](Cc1ccc(O)c(O)c1)[C@@H](C)Cc1ccc(O)c(O)c1 [INSM-18, nordihydroguaiaretic acid]
IGF-1R inhibition (IGF-1 R): directly inhibits activation | proliferation of tumor cells [5]: decreased proliferation | inhibition of activation of c-erbB2/HER2/neu receptor [6]: directly inhibits activation

Nc1ncnc2c1c(-c1ccc3[nH]c(Cc4ccccc4Cl)nc3c1)nn2[C@H]1CC[C@H](N2CCOCC2)CC1 [Example A-928605]
inhibition of IGF-IR (IGF-IR (purified enzyme)): potent inhibitor | inhibition of IGF-IR phosphorylation [7]: potent inhibitor

B1: Figitumumab: IGF-1R inhibitor antibody, HC SEQ ID NO:39, LC SEQ ID NO:40 (antibody)
heavy: EVQLLESGGGLVQPGGSLRLSCTASGFTFSSYAMNWVRQAPGKGLEWVSAISGSGGTTFYADSVKGRFTISRDNSRTTLYLQMNSLRAEDTAVYYCAKDLGWSDSYYYYYGMDVWGQGTTVTVSSASTKGPSVFPLAPCSRSTSESTAALGCLVKDYFPEPVTVSWNSGALTSGVHTFPAVLQSSGLYSLSSVVTVPSSNFGTQTYTCNVDHKPSNTKVDKTVERKCCVECPPCPAPPVAGPSVFLFPPKPKDTLMISRTPEVTCVVVDVSHEDPEVQFNWYVDGVEVHNAKTKPREEQFNSTFRVVSVLTVVHQDWLNGKEYKCKVSNKGLPAPIEKTISKTKGQPREPQVYTLPPSREEMTKNQVSLTCLVKGFYPSDIAVEWESNGQPENNYKTTPPMLDSDGSFFLYSKLTVDKSRWQQGNVFSCSVMHEALHNHYTQKSLSLSPGK
light: DIQMTQFPSSLSASVGDRVTITCRASQGIRNDLGWYQQKPGKAPKRLIYAASRLHRGVPSRFSGSGSGTEFTLTISSLQPEDFATYYCLQHNSYPCSFGQGTKLEIKRTVAAPSVFIFPPSDEQLKSGTASVVCLLNNFYPREAKVQWKVDNALQSGNSQESVTEQDSKDSTYSLSSTLTLSKADYEKHKVYACEVTHQGLSSPVTKSFNRGEC
modifications: Heavy Chain of Figitumumab; Light Chain of Figitumumab
T1/2 ([1]; IV): IV; 20 days
